According to ChEMBL document CHEMBL4308886, “Molecular features characterizing non-peptide selectivity to the human B1 and B2 bradykinin receptors” (Bioorg Med Chem Lett, 2019):

What was measured:
Type in all cases: cell-based
[1] = molecular target: T1, B2 bradykinin receptor (Homo sapiens) (UniProt P30411); assay: Displacement of [3H]bradykinin from human recombinant bradykinin B2 receptor expressed in CHO cells at 50 uM measured after 1 hr relative to control
T1 sequence (whole entry): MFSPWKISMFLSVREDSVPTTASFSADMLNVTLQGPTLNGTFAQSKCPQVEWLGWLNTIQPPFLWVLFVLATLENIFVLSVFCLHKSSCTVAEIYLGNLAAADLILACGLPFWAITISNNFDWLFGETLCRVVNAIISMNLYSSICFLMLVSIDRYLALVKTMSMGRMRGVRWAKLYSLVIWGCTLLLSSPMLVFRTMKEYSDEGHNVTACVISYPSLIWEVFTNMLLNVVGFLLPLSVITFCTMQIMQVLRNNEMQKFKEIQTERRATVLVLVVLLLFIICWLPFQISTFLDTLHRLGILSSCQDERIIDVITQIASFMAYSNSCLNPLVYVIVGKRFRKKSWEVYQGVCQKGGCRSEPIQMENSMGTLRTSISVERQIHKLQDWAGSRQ

[2] = molecular target: T2, B1 bradykinin receptor (Homo sapiens) (UniProt P46663); assay: Displacement of [3H][…] from human recombinant bradykinin B1 receptor expressed in CHO cells at 50 uM measured after 1 hr relative to control
T2 sequence (whole entry): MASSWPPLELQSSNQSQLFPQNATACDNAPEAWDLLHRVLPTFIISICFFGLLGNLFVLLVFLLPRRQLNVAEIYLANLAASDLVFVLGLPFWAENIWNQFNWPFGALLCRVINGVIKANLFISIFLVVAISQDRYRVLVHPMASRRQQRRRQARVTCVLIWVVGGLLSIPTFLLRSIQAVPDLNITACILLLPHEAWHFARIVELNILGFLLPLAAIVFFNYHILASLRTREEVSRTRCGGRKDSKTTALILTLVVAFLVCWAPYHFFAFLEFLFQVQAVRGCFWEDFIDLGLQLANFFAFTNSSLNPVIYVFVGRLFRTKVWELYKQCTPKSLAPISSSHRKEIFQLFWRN

[3] = molecular target: T2, B1 bradykinin receptor (Homo sapiens); assay: Displacement of [3H][…] from human recombinant bradykinin B1 receptor expressed in CHO cells at 10 uM measured after 1 hr relative to control
[4] = molecular target: T1, B2 bradykinin receptor (Homo sapiens); assay: Displacement of [3H]bradykinin from human recombinant bradykinin B2 receptor expressed in CHO cells at 10 uM measured after 1 hr relative to control

| Structure (SMILES) | inhibition [1] | inhibition [2] | inhibition [3] | inhibition [4] |
| --- | --- | --- | --- | --- |
| COc1cc(NCCCCCCCC2CCCCN2)c2ncccc2c1 (configuration not stated) | 65% | 46% | – | – |
| COc1cc(NC(C)CCCN)c2nc(C)ccc2c1OC1CCC(F)CC1 (configuration not stated) | 45% | 12% | – | – |
| CC1=C(C#N)C(=O)N(CCc2c[nH]c3ccccc23)C(=O)/C1=C\Nc1ccc(S(N)(=O)=O)cc1 | – | – | 32% | 34% |
| COc1cc(NCCCCCCC2CCCCN2)c2ncccc2c1 (configuration not stated) | 36% | 31% | – | – |
| CC1CCC(N2NC(=O)/C(=C\c3cccn3-c3ccc(S(N)(=O)=O)cc3)C2=O)CC1Cl (configuration not stated) | 41% | – | 31% | – |
| Cc1ccc(NC2=NC(=O)/C(=C/c3ccc(-c4ccc(C(=O)O)cc4)o3)S2)cc1Cl | – | – | 14% | 33% |
